Assay results reported in patent publication US20200237852A1, “Small Molecule Enhancers of Paneth Cell Function and Differentiation” (Massachusetts Institute of Technology, priority 2019, published 2020).

Test system: ISC-enriched organoids in ENR+CD
Experiment: 384-well secondary screen in ENR+CD incl. early vs. full treatment, secreted LYZ (LYZ.NS, LYZ.S)
Type: cell-based, C57BL/6 mice
Details: 6-day ENR+CD+treatment vs ENR+CD+DMSO; cutoff 0.89, 8 replicates

O=C(/C=C\n1cnc(-c2cc(C(F)(F)F)cc(C(F)(F)F)c2)n1)NNc1cnccn1 [KPT-330]
validation in secondary screen (SSMD above cutoff for both LYZ.NS and LYZ.S): multiple validated doses
